Experimental data published in patent US9062015B2, “Inhibitors of sphingosine kinase” (Merck Patent GmbH, priority 2009, dated 2015).

molecular target: SphK1 (Homo sapiens, UniProt Q9NYA1); assay: SphK1 kinase assay, 384-well flashplate (biochemical assay); conditions: IC50 ranges; 5 nM modified SphK1, 800 nM omega-biotinyl-D-erythro-sphingosine, 1 μM ATP, 30° C., 120 min; read-out: SphK1 Inhibition IC50
Method: Tests for the Inhibition of the SphK1 Activity
The kinase assay is carried out as a 384-well flashplate assay.
5 nM modified SphK1, 800 nM omega-biotinyl-D-erythro-sphingosine and 1 μM ATP (with 0.3 μCi of ^33P-ATP/well) are incubated in a total volume of 50 μl (25 mM HEPES, 5 mM MgCl2, 1 mM dithiothreitol, 0.01% of Brij35, 0.1% of BSA (fatty acid-free), pH 7.4) without or with test substance (5-10 concentrations) at 30° C. for 120 min. The reaction is terminated using 25 μl of 200 mM EDTA solution, filtered off with suction at room temperature after 30 min, and the cavities are washed 3 times with 100 μl of 0.9% NaCl solution. The non-specific proportion of the kinase reaction (blank) is determined using 0.5 mM NaCl. Radioactivity is measured in topcount. IC50 values are calculated using RS1.

SphK1, sequence (Q9NYA1 9-364 limits assumed): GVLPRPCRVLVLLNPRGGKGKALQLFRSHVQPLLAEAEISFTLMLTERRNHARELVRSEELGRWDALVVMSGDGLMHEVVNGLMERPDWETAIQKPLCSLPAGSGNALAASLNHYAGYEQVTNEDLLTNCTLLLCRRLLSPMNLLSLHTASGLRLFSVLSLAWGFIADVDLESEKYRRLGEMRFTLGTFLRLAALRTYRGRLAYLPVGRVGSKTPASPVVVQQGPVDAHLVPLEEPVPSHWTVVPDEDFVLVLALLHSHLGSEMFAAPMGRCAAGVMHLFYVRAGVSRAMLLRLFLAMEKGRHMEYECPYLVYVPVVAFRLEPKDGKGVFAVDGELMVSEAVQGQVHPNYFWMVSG

Compound	IC50 [µM]
CC1(C)CCC(C)(C)c2cc(-c3cccc(N4CCC(NCCCCO)CC4)n3)ccc21 [4-[6′-(5,5,8,8-Tetramethyl-5,6,7,8-tetrahydronaphthalen-2-yl)-3,4,5,6-tetrahydro-2H-1,2′-bipyridinyl-4-ylamino]butan-1-ol]	< 0.1
Cc1ccc(-c2ccc3c(c2)C(C)(C)CCC3(C)C)cc1N1CCNCC1	> 1
CC1(C)CCCc2cc(-c3cccc(N4CCN(CCCCCO)CC4)n3)ccc21 [5-{4-[6-(5,5-Dimethyl-5,6,7,8-tetrahydronaphthalen-2-yl)pyridin-2-yl]-piperazin-1-yl}pentan-1-ol]	0.1 to 1
CC1(C)CCCc2ccc(-c3cccc(N4CCN(CCCCCO)CC4)n3)cc21 [5-{4-[6-(8,8-Dimethyl-5,6,7,8-tetrahydronaphthalen-2-yl)pyridin-2-yl]-piperazin-1-yl}pentan-1-ol]	> 1
CC1(C)CCC(C)(C)c2cc(-c3ncnc(N4CCC(N5CCC(N)C5)CC4)n3)ccc21 (stereo not shown) [1-{1-[4-(5,5,8,8-Tetramethyl-5,6,7,8-tetrahydronaphthalen-2-yl)-1,3,5-triazin-2-yl]piperidin-4-yl}pyrrolidin-3-ylamine]	0.1 to 1
CC1(C)CCC(C)(C)c2cc(-c3cccc(N4CCN(C[C@@H](N)CO)CC4)n3)ccc21	> 1
CC1(C)CCC(C)(C)c2cc(-c3cccc(N4CCC(N5CCC(N)C5)CC4)n3)ccc21 (stereo not shown) [1-[6′-(5,5,8,8-Tetramethyl-5,6,7,8-tetrahydronaphthalen-2-yl)-3,4,5,6-tetrahydro-2H-1,2′-bipyridinyl-4-yl]pyrrolidin-3-ylamine]	< 0.1
CC1(C)CC(C)(C)c2cc(-c3cccc(N4CCN(CCCCO)CC4)n3)ccc21 [4-{4-[6-(1,1,3,3-Tetramethylindan-5-yl)pyridin-2-yl]piperazin-1-yl}-butan-1-ol]	0.1 to 1
CC1(C)CCc2cc(-c3cccc(N4CCN(CCCCCO)CC4)n3)ccc21 [5-{4-[6-(1,1-Dimethylindan-5-yl)pyridin-2-yl]piperazin-1-yl}pentan-1-ol]	> 1
CC1(C)CCCc2cc(-c3cccc(N4CCNCC4)n3)ccc21 [1-[6-(5,5-Dimethyl-5,6,7,8-tetrahydronaphthalen-2-yl)pyridin-2-yl]-piperazine]	> 1
CC1(C)CCC(C)(C)c2cc(-c3ncnc(N4CCC(NCCCCO)CC4)n3)ccc21 [4-{1-[4-(5,5,8,8-Tetramethyl-5,6,7,8-tetrahydronaphthalen-2-yl)-1,3,5-triazin-2-yl]piperidin-4-ylamino}butan-1-ol]	< 0.1
CC1(C)CCC(C)(C)c2cc(-c3cccc(N4CCC(N5CCCC(O)C5)CC4)n3)ccc21 (stereo not shown) [6″-(5,5,8,8-Tetramethyl-5,6,7,8-tetrahydronaphthalen-2-yl)-3,4,5,6,3′,4′,5′,6′-octahydro-2H,2′H-[1,4′;1′,2″]terpyridin-3-ol]	0.1 to 1
CC1(C)CCC(C)(C)c2cc(-c3cncc(N4CCNCC4)n3)ccc21 [6′-(5,5,8,8-Tetramethyl-5,6,7,8-tetrahydronaphthalen-2-yl)-3,4,5,6-tetrahydro-2H-1,2′-bipyrazinyl]	> 1
C[C@H]1CN(c2cccc(-c3ccc4c(c3)C(C)(C)CCC4(C)C)c2)CCN1	0.1 to 1
CC1(C)CCC(C)(C)c2cc(-c3cccc(N4CCC(N)CC4)n3)ccc21 [6′-(5,5,8,8-Tetramethyl-5,6,7,8-tetrahydronaphthalen-2-yl)-3,4,5,6-tetrahydro-2H-1,2′-bipyridinyl-4-ylamine]	0.1 to 1
CC1(C)CCCc2cc(-c3cccc(N4CCN(CCCCO)CC4)n3)ccc21 [4-{4-[6-(5,5-Dimethyl-5,6,7,8-tetrahydronaphthalen-2-yl)pyridin-2-yl]-piperazin-1-yl}butan-1-ol]	> 1
CC1(C)CCc2cc(-c3cccc(N4CCN(CCCCO)CC4)n3)ccc21 [4-{4-[6-(1,1-Dimethylindan-5-yl)pyridin-2-yl]piperazin-1-yl}butan-1-ol]	> 1
CC1(C)CCCc2ccc(-c3cccc(N4CCNCC4)n3)cc21 [1-[6-(8,8-Dimethyl-5,6,7,8-tetrahydronaphthalen-2-yl)pyridin-2-yl]-piperazine]	> 1
CC1(C)CCC(C)(C)c2cc(-c3cccc(N4CCN(CCCCO)CC4)n3)ccc21	< 0.1
CC1(C)CC(C)(C)c2cc(-c3cccc(N4CCN(CCCCCO)CC4)n3)ccc21 [5-{4-[6-(1,1,3,3-Tetramethylindan-5-yl)pyridin-2-yl]piperazin-1-yl}-pentan-1-ol]	0.1 to 1
CC1(C)CCC(C)(C)c2cc(-c3ccnc(N4CCN(CCCCO)CC4)c3)ccc21	0.1 to 1
CC1(C)CCC(C)(C)c2cc(-c3cccc(N4CCNCC4)c3)ccc21 [1-[3-(5,5,8,8-Tetramethyl-5,6,7,8-tetrahydronaphthalen-2-yl)phenyl]-piperazine]	0.1 to 1
CC1(C)CCC(C)(C)c2cc(-c3nccc(N4CCNCC4)n3)ccc21 [4-Piperazin-1-yl-2-(5,5,8,8-tetramethyl-5,6,7,8-tetrahydronaphthalen-2-yl)pyrimidine]	0.1 to 1

Second part, the compound after the results:

IC50 [µM]	Compound
< 0.1	CC1(C)CCC(C)(C)c2cc(-c3ncnc(N4CCN(CCCCCO)CC4)n3)ccc21
< 0.1	CC1(C)CCC(C)(C)c2cc(-c3cccc(N4CCN(CCCCCO)CC4)n3)ccc21
0.1 to 1	CC1(C)CCC(C)(C)c2cc(-c3nccc(N4CCN(CCCO)CC4)n3)ccc21
< 0.1	CC1(C)CCC(C)(C)c2cc(-c3cccc(N4CCN(CCCCCO)CC4)c3)ccc21
0.1 to 1	CC1(C)CCC(C)(C)c2cc(-c3cc(N4CCNCC4)ccn3)ccc21
< 0.1	CC1(C)CCC(C)(C)c2cc(-c3ncnc(N4CCNCC4)n3)ccc21 [2-Piperazin-1-yl-4-(5,5,8,8-tetramethyl-5,6,7,8-tetrahydronaphthalen-2-yl)-1,3,5-triazine]
0.1 to 1	CC1(C)CC(C)(C)c2cc(-c3cccc(N4CCNCC4)n3)ccc21 [1-[6-(1,1,3,3-Tetramethylindan-5-yl)pyridin-2-yl]piperazine]
0.1 to 1	CC1(C)CCC(C)(C)c2cc(-c3cccc(N4CCN(CCCCO)CC4)c3)ccc21
0.1 to 1	CC1(C)CCC(C)(C)c2cc(-c3ccnc(N4CCNCC4)n3)ccc21 [2-Piperazin-1-yl-4-(5,5,8,8-tetramethyl-5,6,7,8-tetrahydronaphthalen-2-yl)pyrimidine]
0.1 to 1	CC1(C)CCC(C)(C)c2cc(-c3cccc(N4CCNCC4)n3)ccc21 [1-[6-(5,5,8,8-Tetramethyl-5,6,7,8-tetrahydronaphthalen-2-yl)pyridin-2-yl]piperazine]
> 1	CC1(C)CCCc2ccc(-c3cccc(N4CCN(CCCCO)CC4)n3)cc21 [4-{4-[6-(8,8-Dimethyl-5,6,7,8-tetrahydronaphthalen-2-yl)pyridin-2-yl]-piperazin-1-yl}butan-1-ol]
0.1 to 1	CC1(C)CCC(C)(C)c2cc(-c3ncnc(N4CCC(N5CCCC(O)C5)CC4)n3)ccc21 (stereo not shown) [1′-[4-(5,5,8,8-Tetramethyl-5,6,7,8-tetrahydronaphthalen-2-yl)-1,3,5-triazin-2-yl]-1,4′-bipiperidinyl-3-ol]
0.1 to 1	CC1(C)CCC(C)(C)c2cc(-c3ccnc(N4CCNCC4)c3)ccc21
0.1 to 1	CC1(C)CCC(C)(C)c2cc(-c3cccc(N4CCC(NCCCCCO)CC4)n3)ccc21 [5-[6′-(5,5,8,8-Tetramethyl-5,6,7,8-tetrahydronaphthalen-2-yl)-3,4,5,6-tetrahydro-2H-1,2′-bipyridinyl-4-ylamino]pentan-1-ol]
0.1 to 1	CC1(C)CCC(C)(C)c2cc(-c3cccc(N4CCN(CCCO)CC4)n3)ccc21 [3-{4-[6-(5,5,8,8-Tetramethyl-5,6,7,8-tetrahydronaphthalen-2-yl)-pyridin-2-yl]piperazin-1-yl}propan-1-ol]
0.1 to 1	CC1(C)CCC(C)(C)c2cc(-c3cc(N4CCN(CCCCO)CC4)ccn3)ccc21
> 1	COCCOc1ccc(-c2ccc3c(c2)C(C)(C)CCC3(C)C)nc1N1CCN(CCCCCO)CC1
0.1 to 1	CC1(C)CCC(C)(C)c2cc(-c3cccc(C4CCNCC4)n3)ccc21 [6-(5,5,8,8-Tetramethyl-5,6,7,8-tetrahydronaphthalen-2-yl)-1′,2′,3′,4′,5′,6′-hexahydro-2,4′-bipyridinyl]
> 1	COCCOc1ccc(-c2ccc3c(c2)C(C)(C)CCC3(C)C)nc1N1CCNCC1
> 1	CC1(C)CCCc2cc(-c3cccc(N4CCN(CCCO)CC4)n3)ccc21 [3-{4-[6-(5,5-Dimethyl-5,6,7,8-tetrahydronaphthalen-2-yl)pyridin-2-yl]-piperazin-1-yl}propan-1-ol]
> 1	CC1(C)CCCc2cc(-c3ncnc(N4CCNCC4)n3)ccc21 [2-(5,5-Dimethyl-5,6,7,8-tetrahydronaphthalen-2-yl)-4-piperazin-1-yl-1,3,5-triazine]
0.1 to 1	CC1(C)CCC(C)(C)c2cc(-c3cccc(N4CCN(CCCCCOC(=O)CN)CC4)c3)ccc21
< 0.1	CC1(C)CCC(C)(C)c2cc(-c3ncnc(N4CCC(N)CC4)n3)ccc21
> 1	CC1(C)CCc2cc(-c3cccc(N4CCNCC4)n3)ccc21 [1-[6-(1,1-Dimethylindan-5-yl)pyridin-2-yl]piperazine]
> 1	CC1(C)CCCc2ccc(-c3ncnc(N4CCNCC4)n3)cc21 [2-(8,8-Dimethyl-5,6,7,8-tetrahydronaphthalen-2-yl)-4-piperazin-1-yl-1,3,5-triazine]
< 0.1	CC1(C)CCC(C)(C)c2cc(-c3ncnc(N4CCN(CCCCO)CC4)n3)ccc21 [4-{4-[4-(5,5,8,8-Tetramethyl-5,6,7,8-tetrahydronaphthalen-2-yl)-1,3,5-triazin-2-yl]piperazin-1-yl}butan-1-ol]
